Holding throughout (format): cell-based
Test [1] has as its system RS4;11-BCL-2 F104L cells. As to the kind of experiment: Cell proliferation assay, engineered RS4;11 cells stably overexpressing BCL-2 F104L (MTS, 168 h). The settings on record: Homo sapiens, read-out: RS4, 11 BCL2-F104L. A digest of the protocol:
(§1)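 Proliferation read-out: MTS for exactly 2 h, then absorbance at 490 nm, with IC50 derived from the fit. Before this, engineered RS4;11 lines (BCL-2 G101V, F104L; 5000 cells/well) were exposed 168 h at 37 °C to serially diluted compound, final 1.4–10000 nM.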

The test system of test [2] is Toledo cells. The test can be described thus: Cell proliferation assay, Toledo cells (MTS, 72 h). The settings on record: Homo sapiens, Toledo cells, MTS, read-out: Toledo IC50. A digest of the protocol:
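Toledo cells (30000/well, RPMI-1640 with 10% FBS) were preincubated for 4 h. They were then exposed to nine compound concentrations from 10000 to 1.5 nM for 72 h at 37 °C, 5% CO2. MTS was added for 2 h and absorbance read at 490 nm to give IC50.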

Test [3] has as its system RS4;11-BCL-2 G101V cells. As to the kind of experiment: Cell proliferation assay, engineered RS4;11 cells stably overexpressing BCL-2 G101V (MTS, 168 h). The note with it: Homo sapiens, RS4-11, 168 h, read-out: RS4, 11 BCL2- G101V. The gist of the method: as §1

With `CC(C)c1ccccc1[C@@H]1CCC[C@@H]1N1CC2(CCN(c3ccc(C(=O)NS(=O)(=O)c4cc5c(c([N+](=O)[O-])c4)N[C@@H]([C@H]4CC[C@](C)(O)CC4)CO5)c(Oc4cc5c(F)c[nH]c5nc4F)c3)CC2)C1` (single isomer, unassigned) [Example D-96, 2-((3,6-difluoro-1H-pyrrolo[2,3-b]pyridin-5-yl)oxy)-N-(((S)-3-((1r,4S)-4-hydroxy-4-methylcyclohexyl)-5-nitro-3,4-dihydro-2H-benzo[b][1,4]oxazin-7-yl)sulfonyl)-4-(2-((1S,2S or 1R,2R)-2-(2-isopropylphenyl)cyclopentyl)-2,7-diazaspiro[3.5]nonan-7-yl)benzamide], the IC50 was 1 nM in test [1], 1 nM in test [2] and 4 nM in test [3].
`CC(C)c1ccccc1[C@@H]1CCCN1C1CC2(CCN(c3ccc(C(=O)NS(=O)(=O)c4cc5c(c([N+](=O)[O-])c4)N[C@@H]([C@H]4CC[C@](C)(O)CC4)CO5)c(Oc4cc5cc[nH]c5nc4OC[C@H]4CCCN4C)c3)CC2)C1` (single isomer, unassigned) [Example D-130, N-(((S)-3-((1r,4S)-4-hydroxy-4-methylcyclohexyl)-5-nitro-3,4-dihydro-2H-benzo[b][1,4]oxazin-7-yl)sulfonyl)-4-(2-((R or S)-2-(2-isopropylphenyl)pyrrolidin-1-yl)-7-azaspiro[3.5]nonan-7-yl)-2-((6-(((R)-1-methylpyrrolidin-2-yl)methoxy)-1H-pyrrolo[2,3-b]pyridin-5-yl)oxy)benzamide]: the IC50 in test [1], in test [2] and in test [3] was 1 nM throughout.
With `CC(C)c1ccccc1[C@@H]1CCCN1C1CC2(CCN(c3ccc(C(=O)NS(=O)(=O)c4cc5c(c([N+](=O)[O-])c4)N[C@@H]([C@H]4CC[C@](C)(O)CC4)CO5)c(Oc4cc5cc[nH]c5nc4OC[C@@H]4COCCN4)c3)CC2)C1` (single isomer, unassigned) [Example D-214, N-(((S)-3-((1r,4S)-4-hydroxy-4-methylcyclohexyl)-5-nitro-3,4-dihydro-2H-benzo[b][1,4]oxazin-7-yl)sulfonyl)-4-(2-((R or S)-2-(2-isopropylphenyl)pyrrolidin-1-yl)-7-azaspiro[3.5]nonan-7-yl)-2-((6-(((S)-morpholin-3-yl)methoxy)-1H-pyrrolo[2,3-b]pyridin-5-yl)oxy)benzamide], the IC50 in test [1], in test [2] and in test [3] was 1 nM in each case.
Turning to `CC(C)c1ccccc1[C@@H]1CCCN1C1CC2(CCN(c3ccc(C(=O)NS(=O)(=O)c4cc5c(c([N+](=O)[O-])c4)N[C@@H]([C@H]4CC[C@](C)(O)CC4)CO5)c(Oc4cc5cc[nH]c5nc4OCCN(C)C)c3)CC2)C1` (single isomer, unassigned) [Example D-60, 2-((6-(2-(dimethylamino)ethoxy)-1H-pyrrolo[2,3-b]pyridin-5-yl)oxy)-N-(((S)-3-((1r,4S)-4-hydroxy-4-methylcyclohexyl)-5-nitro-3,4-dihydro-2H-benzo[b][1,4]oxazin-7-yl)sulfonyl)-4-(2-((R or S)-2-(2-isopropylphenyl)pyrrolidin-1-yl)-7-azaspiro[3.5]nonan-7-yl)benzamide], the IC50 in test [1], in test [2] and in test [3] was 1 nM throughout.
In the case of `CC(C)c1ccccc1[C@@H]1CCCN1C1CC2(CCN(c3ccc(C(=O)NS(=O)(=O)c4cc5c(c([N+](=O)[O-])c4)N[C@@H]([C@H]4CC[C@](C)(O)CC4)CO5)c(Oc4cc5cc[nH]c5nc4OC4CCN(C)CC4)c3)CC2)C1` (single isomer, unassigned) [Example D-229, N-(((S)-3-((1r,4S)-4-hydroxy-4-methylcyclohexyl)-5-nitro-3,4-dihydro-2H-benzo[b][1,4]oxazin-7-yl)sulfonyl)-4-(2-((R or S)-2-(2-isopropylphenyl)pyrrolidin-1-yl)-7-azaspiro[3.5]nonan-7-yl)-2-((6-((1-methylpiperidin-4-yl)oxy)-1H-pyrrolo[2,3-b]pyridin-5-yl)oxy)benzamide], the IC50 in test [1], in test [2] and in test [3] was 1 nM throughout.
For `CC(C)c1ccccc1[C@@H]1CCC[C@@H]1N1CC2(CCN(c3ccc(C(=O)NS(=O)(=O)c4ccc(NC[C@H]5CC[C@](C)(O)CC5)c([N+](=O)[O-])c4)c(Oc4cc5c(F)c[nH]c5nc4F)c3)CC2)C1` (single isomer, unassigned) [Example D-90, 2-((3,6-difluoro-1H-pyrrolo[2,3-b]pyridin-5-yl)oxy)-N-((4-((1r,4r)-4-hydroxy-4-methylcyclohexyl)methyl)amino)-3-nitrophenyl) sulfonyl)-4-(2-((1S,2S or 1R,2R)-2-(2-isopropylphenyl) cyclopentyl)-2,7-diazaspiro[3.5] nonan-7-yl)benzamide], the IC50 in test [1] came to 1 nM; in test [2], 1 nM; in test [3], 5 nM.
As for `CC(C)c1ccccc1[C@@H]1CCCN1C1CC2(CCN(c3ccc(C(=O)NS(=O)(=O)c4cc5c(c([N+](=O)[O-])c4)N[C@@H]([C@H]4CC[C@](C)(O)CC4)CO5)c(Oc4cc5cc[nH]c5nc4OC[C@@H]4COCCN4C)c3)CC2)C1` (single isomer, unassigned) [Example D-135, N-(((S)-3-((1r,4S)-4-hydroxy-4-methylcyclohexyl)-5-nitro-3,4-dihydro-2H-benzo[b][1,4]oxazin-7-yl)sulfonyl)-4-(2-((R or S)-2-(2-isopropylphenyl)pyrrolidin-1-yl)-7-azaspiro[3.5]nonan-7-yl)-2-((6-(((S)-4-methylmorpholin-3-yl)methoxy)-1H-pyrrolo[2,3-b]pyridin-5-yl)oxy)benzamide], the IC50 in test [1], in test [2] and in test [3] was 1 nM in each case.
With `CC(C)c1ccccc1[C@@H]1CCCN1C1CC2(CCN(c3ccc(C(=O)NS(=O)(=O)c4cc5c(c([N+](=O)[O-])c4)N[C@@H]([C@H]4CC[C@](C)(O)CC4)CO5)c(Oc4cc5cc[nH]c5nc4OCCN4CCC4)c3)CC2)C1` (single isomer, unassigned) [Example D-61, 2-((6-(2-(azetidin-l-yl)ethoxy)-1H-pyrrolo[2,3-b]pyridin-5-yl)oxy)-N-(((S)-3-((1r,4S)-4-hydroxy-4-methylcyclohexyl)-5-nitro-3,4-dihydro-2H-benzo[b][1,4]oxazin-7-yl)sulfonyl)-4-(2-((R or S)-2-(2-isopropylphenyl)pyrrolidin-1-yl)-7-azaspiro[3.5]nonan-7-yl)benzamide], the results for the IC50 in test [1], in test [2] and in test [3] were 11 nM, 1 nM and 1 nM, respectively.
Take `CC(C)c1ccccc1[C@@H]1CCCN1C1CC2(CCN(c3ccc(C(=O)NS(=O)(=O)c4cc5c(c([N+](=O)[O-])c4)N[C@@H]([C@H]4CC[C@](C)(O)CC4)CO5)c(Oc4cc5cc[nH]c5nc4Cl)c3)CC2)C1` (single isomer, unassigned) [Example D-18, 2-((6-chloro-1H-pyrrolo[2,3-b]pyridin-5-yl)oxy)-N-(((S)-3-((1r,4S)-4-hydroxy-4-methylcyclohexyl)-5-nitro-3,4-dihydro-2H-benzo[b] [1,4]oxazin-7-yl)sulfonyl)-4-(2-((R or S)-2-(2-isopropylphenyl)pyrrolidin-1-yl)-7-azaspiro[3.5]nonan-7-yl)benzamide]: the IC50 in test [1] is 33 nM; in test [2], 1 nM; in test [3] it was 14 nM.
With `CC(C)c1ccccc1[C@@H]1CCC[C@@H]1N1CC2(CCN(c3ccc(C(=O)NS(=O)(=O)c4ccc(NC[C@H]5CC[C@](C)(O)CC5)c([N+](=O)[O-])c4)c(Oc4cc5c(F)c[nH]c5nc4Cl)c3)CC2)C1` (single isomer, unassigned) [Example D-113, 2-((6-chloro-3-fluoro-1H-pyrrolo [2,3-b]pyridin-5-yl)oxy)-N-((4-((((1r,4r)-4-hydroxy-4-methylcyclohexyl)methyl)amino)-3-nitrophenyl)sulfonyl)-4-(2-((1S,2S or 1R,2R)-2-(2-isopropylphenyl)cyclopentyl)-2,7-diazaspiro[3.5]nonan-7-yl)benzamide], the IC50 in test [1] turned out to be 1 nM; in test [2], 1 nM; in test [3], 19 nM.
In the case of `CC(C)c1ccccc1[C@@H]1CCCN1C1CC2(CCN(c3ccc(C(=O)NS(=O)(=O)c4cc5c(c([N+](=O)[O-])c4)N[C@@H]([C@H]4CC[C@](C)(O)CC4)CO5)c(Oc4cc5cc[nH]c5nc4OC[C@H]4CCN4C)c3)CC2)C1` (single isomer, unassigned) [Example D-123, N-(((S)-3-((1r,4S)-4-hydroxy-4-methylcyclohexyl)-5-nitro-3,4-dihydro-2H-benzo[b][1,4]oxazin-7-yl)sulfonyl)-4-(2-((R or S)-2-(2-isopropylphenyl)pyrrolidin-1-yl)-7-azaspiro[3.5]nonan-7-yl)-2-((6-(((7)-1-methylazetidin-2-yl)methoxy)-1H-pyrrolo[2,3-b]pyridin-5-yl)oxy)benzamide], the IC50 amounted to 11 nM in test [1], 1 nM in test [2] and 1 nM in test [3].

Values taken from patent US20230159527A1, “COMPOUNDS AS BCL-2 INHIBITORS” (Fochon Pharmaceuticals, Ltd., priority 2020, published 2023).
